Results as given in paper PMC9169098 (Proceedings of the National Academy of Sciences of the …, 2022).

Assays:
[1] = target: T1, BceAB (ATPase sites of BceA) (Bacillus subtilis, UniProt O34697); assay: colorimetric phosphate-release ATPase assay; format: biochemical; conditions: ATP substrate, 4 mM MgCl2, 37 °C, inhibitor
T1 sequence (O34697 1-253 limits assumed): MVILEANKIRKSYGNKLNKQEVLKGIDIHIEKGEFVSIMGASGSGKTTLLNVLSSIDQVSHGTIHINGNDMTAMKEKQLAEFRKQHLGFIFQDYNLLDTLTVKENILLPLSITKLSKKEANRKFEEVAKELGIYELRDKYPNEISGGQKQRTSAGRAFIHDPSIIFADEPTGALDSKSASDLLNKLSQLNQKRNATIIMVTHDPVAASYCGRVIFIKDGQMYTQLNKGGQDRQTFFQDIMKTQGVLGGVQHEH
T1 sequence (O34741 1-646 partner): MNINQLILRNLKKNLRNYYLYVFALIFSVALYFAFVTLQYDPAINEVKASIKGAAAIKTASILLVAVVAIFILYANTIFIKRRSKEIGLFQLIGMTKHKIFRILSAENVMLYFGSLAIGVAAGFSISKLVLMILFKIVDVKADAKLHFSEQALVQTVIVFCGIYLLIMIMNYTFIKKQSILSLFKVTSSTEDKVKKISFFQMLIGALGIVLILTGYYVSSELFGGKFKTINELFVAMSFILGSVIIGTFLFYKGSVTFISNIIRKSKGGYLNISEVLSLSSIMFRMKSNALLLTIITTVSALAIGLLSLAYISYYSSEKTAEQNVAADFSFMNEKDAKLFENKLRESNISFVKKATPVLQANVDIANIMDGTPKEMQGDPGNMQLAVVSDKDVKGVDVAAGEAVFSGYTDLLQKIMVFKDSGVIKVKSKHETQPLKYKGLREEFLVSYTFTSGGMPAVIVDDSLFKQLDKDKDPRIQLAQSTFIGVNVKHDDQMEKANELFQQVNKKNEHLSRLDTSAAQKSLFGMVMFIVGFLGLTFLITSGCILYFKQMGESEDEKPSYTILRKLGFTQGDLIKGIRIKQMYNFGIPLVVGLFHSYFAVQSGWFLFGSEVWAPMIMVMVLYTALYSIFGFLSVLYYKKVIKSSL

BceB = target: T2, BceB (B. subtilis, UniProt O34741 1-646); assay: cryo-EM structure
T2 sequence (looked up): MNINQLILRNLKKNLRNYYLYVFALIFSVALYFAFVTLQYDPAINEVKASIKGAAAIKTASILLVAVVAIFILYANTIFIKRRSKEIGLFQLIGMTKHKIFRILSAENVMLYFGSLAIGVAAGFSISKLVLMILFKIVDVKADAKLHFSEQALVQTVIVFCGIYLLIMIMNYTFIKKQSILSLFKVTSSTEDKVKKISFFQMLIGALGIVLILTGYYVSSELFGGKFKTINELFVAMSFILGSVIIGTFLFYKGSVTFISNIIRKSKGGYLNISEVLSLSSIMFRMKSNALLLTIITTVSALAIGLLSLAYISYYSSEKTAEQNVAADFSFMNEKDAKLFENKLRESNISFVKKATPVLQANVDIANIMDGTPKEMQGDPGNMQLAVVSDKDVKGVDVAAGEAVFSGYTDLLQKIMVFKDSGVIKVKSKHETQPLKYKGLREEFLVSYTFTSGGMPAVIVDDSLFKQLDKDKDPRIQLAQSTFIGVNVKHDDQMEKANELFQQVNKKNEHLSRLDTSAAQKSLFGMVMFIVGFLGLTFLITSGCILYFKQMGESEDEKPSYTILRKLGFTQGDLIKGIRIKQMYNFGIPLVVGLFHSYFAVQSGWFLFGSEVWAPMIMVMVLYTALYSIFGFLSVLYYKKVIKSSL

cryo-EM structure = target: the molecule itself; assay: cryo-EM structure

Molecule: Nc1ncnc2c1ncn2[C@@H]1O[C@H](COP(=O)(O)OP(=O)(O)OP(O)(O)=S)[C@@H](O)[C@H]1O [ATPγS]
- colorimetric phosphate-release ATPase assay ([1]; substrate analog): potently inhibited by common ATPase inhibitors such as the substrate analog ATP? S

Molecule: [O]=[V]([OH])([OH])[OH] [sodium ortho-vanadate]
- colorimetric phosphate-release ATPase assay [1]: potently inhibited by common ATPase inhibitors such as the substrate analog ATP? S or sodium ortho-vanadate

B1: BceA (natural protein, B. subtilis, UniProt O34697 1-253, looked up)
chain: MVILEANKIRKSYGNKLNKQEVLKGIDIHIEKGEFVSIMGASGSGKTTLLNVLSSIDQVSHGTIHINGNDMTAMKEKQLAEFRKQHLGFIFQDYNLLDTLTVKENILLPLSITKLSKKEANRKFEEVAKELGIYELRDKYPNEISGGQKQRTSAGRAFIHDPSIIFADEPTGALDSKSASDLLNKLSQLNQKRNATIIMVTHDPVAASYCGRVIFIKDGQMYTQLNKGGQDRQTFFQDIMKTQGVLGGVQHEH
- stoichiometry N (BceB): 2 BceA per BceB

B2: BceA E169Q variant (natural protein, B. subtilis, UniProt O34697 1-253, looked up)
chain: MVILEANKIRKSYGNKLNKQEVLKGIDIHIEKGEFVSIMGASGSGKTTLLNVLSSIDQVSHGTIHINGNDMTAMKEKQLAEFRKQHLGFIFQDYNLLDTLTVKENILLPLSITKLSKKEANRKFEEVAKELGIYELRDKYPNEISGGQKQRTSAGRAFIHDPSIIFADQPTGALDSKSASDLLNKLSQLNQKRNATIIMVTHDPVAASYCGRVIFIKDGQMYTQLNKGGQDRQTFFQDIMKTQGVLGGVQHEH
- stoichiometry N (cryo-EM structure): 2
